One series relates to NL4-3. The series can be described thus: Anti-HIV cytoprotection assay, wild type NL4-3. Conditions: for TI: HIV-1 strain NL4-3. It counts as cell-based, HIV-1. As to the method:
(§1) Cells were prepared as described above. Virus Preparation—The wild type NL4-3 and drug resistant A17 viruses were obtained from the NIH AIDS Research and Reference Reagent Program and stock virus pools were produced in CEM-SS cells. Amino acid substitutes of L100I, Y181C and P23L were introduced by site-directed mutagenesis into pN L4-3 and stock virus pools were produced in CEM-SS cells. A pretitered aliquot of virus was removed from the freezer (−80° C.) and allowed to thaw slowly to room temperature in a biological safety cabinet.
(§2) Plate Format—Each plate contains cell control wells (cells only), virus control wells (cells plus virus), drug toxicity wells (cells plus drug only), drug colorimetric control wells (drug only) as well as experimental wells (drug plus cells plus virus). Samples were tested in triplicate with eleven half-log dilutions per compound. Efficacy and Toxicity XTT—Following incubation at 37° C. in a 5% CO2 incubator, the test plates were stained with the tetrazolium dye XTT (2,3-bis(2-methoxy-4-nitro-5-sulfophenyl)-5-[(phenylamino)carbonyl]-2H-tetrazolium hydroxide). XTT-tetrazolium was metabolized by the mitochondrial enzymes of metabolically active cells to a soluble formazan product, allowing rapid quantitative analysis of the inhibition of HIV induced cell killing by anti-HIV test substances. XTT solution was prepared daily as a stock of 1 mg/mL in RPMI1640. Phenazine methosulfate (PMS) solution was prepared at 0.15 mg/mL in PBS and stored in the dark at −20° C. XTTIPMS stock was prepared immediately before use by adding 40 μL of PMS per ml of XTT solution. Fifty microliters of XTT/PMS was added to each well of the plate and the plate was re-incubated for 4 hours at 37° C. Plates were sealed with adhesive plate sealers and shaken gently or inverted several times to mix the soluble formazan product and the plate was read spectrophotometrically at 450/650 nm with a Molecular Devices Vmax plate reader.
(§3) Data Analysis—Raw data was collected from the Softmax Pro 4.6 software and imported into a Excel XLFit4 spreadsheet for analysis by four parameter curve fit calculations. Both antiviral activity and toxicity are calculated.

The next series concerns A17K103N/Y181C. As to the kind of experiment: Anti-HIV cytoprotection assay, drug resistant A17. It counts as cell-based. Conditions: HIV-1 strain A17K103N/Y181C, CEM-SS cells. As to the method:
as §1, §2, §3

The subject of a further series is Caco-2 monolayers. As to the kind of experiment: in vitro. It counts as in vitro ADME. As to conditions: for Recovery (%) A→B / Recovery (%) B→A / Average Papp, A→B / Average Papp, B→A: 2 hours; for Average Papp, A→B / Average Papp, B→A: pH 7.4. In a few lines: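 Permeability across Caco-2 monolayers in 12-well Transwell inserts (1.13 cm² area), run in duplicate. Calculation uses receiver and donor volumes, nominal dosing concentration, final receiver and donor concentrations, and the mean of nominal and measured 120 min donor concentrations.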

A further series deals with NL4-3P236L. As to the kind of experiment: Anti-HIV cytoprotection assay, drug resistant NL4-3 P236L. Conditions: HIV-1 strain NL4-3P236L; for EC50: CEM-SS cells. It counts as cell-based. As to the method: as §1, with “cabinet. Virus was re-suspended and diluted into tissue culture medium such that the amount of virus added to each well in a volume of 50 μL was the amount determined to yield 85 to 95% cell killing at 6 days post-infection.” for “cabinet.”
as §2, §3

In series [1] the test system is CEM-SS cells. As to the kind of experiment: Toxicity XTT in CEM-SS cells (drug resistant strain assay). It counts as cell-based. As to conditions: read-out: TC50 (the source's name). Here is the method: as §1, with “cabinet. Virus was re-suspended and diluted into tissue culture medium such that the amount of virus added to each well in a volume of 50 μL was the amount determined to yield 85 to 95% cell killing at 6 days post-infection.” for “cabinet.”
as §2, §3

Series [2] relates to CEM-SS cells. As to the kind of experiment: Toxicity XTT in CEM-SS cells (cytoprotection assay). Conditions: XTT; read-out: CEM-SS TC50. It counts as cell-based. In a few lines: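 CEM-SS cells in exponential growth (>95% viable) were plated with compound alone, as eleven half-log dilutions in triplicate, at 37 °C and 5% CO2. Viability was measured by XTT/PMS metabolism over 4 h, read at 450/650 nm. Toxicity was derived by four-parameter curve fitting.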
(Tetrazolium dyes change colour on reduction, which living cells bring about.)

Series [3] can be described thus: Toxicity XTT in CEM-SS cells (drug resistant strain assay). Conditions: human, CEM-SS cells, read-out: TC50 (the source's name). It counts as cell-based. Here is the method:
as §1, with “cabinet. Virus was re-suspended and diluted into tissue culture medium such that the amount of virus added to each well in a volume of 50 μL was the amount determined to yield 85 to 95% cell killing at 6 days post-infection.” for “cabinet.”
as §2, §3

Setting [4] is: run with HIV-1 strain A17K103N/Y181C.
[5] abbreviates: run with HIV-1 strain NL4-3L100I.
Where [6] appears, read: run with HIV-1 strain NL4-3P236L.
The mark [7] stands for this setting: run with HIV-1 strain NL4-3Y181C.
Where [8] appears, read: Human immunodeficiency virus 1, NL43, CEM-SS.
Setting [9] is: Human immunodeficiency virus 1, CEM-SS.

Read-outs that look alike come from different tables or passages of the source. Some results are limits rather than exact numbers.

The term EC50 denotes the concentration giving half of the maximal effect.

With “5-O-mPEG9-Delavirdine [mPEG9-O-Delavirdine]”, the TI in the series on NL4-3 is more than 5.6. The EC50 with NL4-3 (HIV-1 strain NL4-3, CEM-SS cells, read-out: EC50) was 0.89 µM; in the series on A17K103N/Y181C (read-out: EC50) it was more than 5 µM; in the series with NL4-3P236L (read-out: EC50) it was more than 5 µM. The entries for the “Efflux Ratio (B→A/A→B)” value in the series on Caco-2 monolayers (Test 1) and with Caco-2 monolayers (Test 2) were 12 and 7.1, respectively. Also, the “Recovery (%) A→B” value in the series with Caco-2 monolayers (Test 1, 10 μM) turned out to be 66%; in the series on Caco-2 monolayers (Test 2, 10 μM) it was 93%. Besides, the “Recovery (%) B→A” value with Caco-2 monolayers (Test 1, 10 μM) was 72%; in the series with Caco-2 monolayers (Test 2, 10 μM) it was 94%. The “Average Papp, A→B” value in the series on Caco-2 monolayers (Test 1, 10 μM) came to 2.22 ×10⁻⁶ cm/s; with Caco-2 monolayers (Test 2, 10 μM), 5.27 ×10⁻⁶ cm/s. Further, the “Average Papp, B→A” value came to 27.7 ×10⁻⁶ cm/s in the series on Caco-2 monolayers (Test 1, 10 μM) and 37.3 ×10⁻⁶ cm/s in the series on Caco-2 monolayers (Test 2, 10 μM). Moreover, the CC50 with CEM-SS cells [1] (setting [4]) was more than 5 µM; with CEM-SS cells [1] (run with HIV-1 strain NL4-3) it was more than 5 µM; in the series on CEM-SS cells [1] (setting [5]) it was more than 5 µM; with CEM-SS cells [1] (setting [6]) it was more than 5 µM; in the series with CEM-SS cells [1] (setting [7]), more than 5 µM; with CEM-SS cells [2] it was 40.7 µM.

`COCCNc1ccc2[nH]c(C(=O)N3CCN(c4ncccc4NC(C)C)CC3)cc2c1` [5-mPEG1-NH-Delavirdine, 5-mPEG-NH-Delavirdine] displayed a TI in the series on NL4-3 of more than 50.0. Besides, the results for the 50% effective concentration (EC50) with NL4-3 (setting [8]), in the series on A17K103N/Y181C (setting [9]) and in the series with NL4-3P236L (setting [9]) were 0.02 µM, more than 1 µM and more than 1 µM, respectively. Moreover, the CC50 in series [3] (setting [4]), in series [3] (run with HIV-1 strain NL4-3), in series [3] (setting [5]), in series [3] (setting [6]) and in series [3] (setting [7]) was more than 1 µM each time.

As to `COCCOCCNc1ccc2[nH]c(C(=O)N3CCN(c4ncccc4NC(C)C)CC3)cc2c1` [5-mPEG2-NH-Delavirdine], the TI in the series with NL4-3 is listed as more than 12.5; with NL4-3P236L, more than 4.4. The results for the EC50 in the series on NL4-3 (setting [8]), with A17K103N/Y181C (setting [9]) and in the series with NL4-3P236L (setting [9]) were 0.08 µM, more than 1 µM and 0.23 µM, respectively. Besides, the CC50 in series [3] (setting [4]), in series [3] (run with HIV-1 strain NL4-3), in series [3] (setting [5]), in series [3] (setting [6]) and in series [3] (setting [7]) was more than 1 µM in each case.

Take `COCCOCCOCCOc1ccc2[nH]c(C(=O)N3CCN(c4ncccc4NC(C)C)CC3)cc2c1` [mPEG3-O-Delavirdine, 5-O-mPEG3-Delavirdine]: the TI in the series with NL4-3 is listed as more than 83.3. The EC50 was 0.06 µM in the series with NL4-3 (setting [8]), more than 5 µM in the series on A17K103N/Y181C (setting [9]) and more than 5 µM with NL4-3P236L (setting [9]). For the same molecule, the CC50 in series [3] (setting [4]), in series [3] (run with HIV-1 strain NL4-3), in series [3] (setting [5]), in series [3] (setting [6]) and in series [3] (setting [7]) was more than 5 µM each time.

In the series with NL4-3, `COCCOCCOCCOCCOc1ccc2[nH]c(C(=O)N3CCN(c4ncccc4NC(C)C)CC3)cc2c1` [mPEG4-O-Delavirdine, 5-O-mPEG4-Delavirdine] gave a TI of more than 5.8. Besides, the EC50 in the series with NL4-3 (setting [8]) was 0.87 µM; with A17K103N/Y181C (setting [9]), more than 5 µM; with NL4-3P236L (setting [9]), more than 5 µM. Further, the CC50 in series [3] (setting [4]), in series [3] (run with HIV-1 strain NL4-3), in series [3] (setting [5]), in series [3] (setting [6]) and in series [3] (setting [7]) was more than 5 µM each time.

The values are drawn from patent US9421204B2, “Oligomer modified diaromatic substituted compounds” (priority 2010, dated 2016).
